These results are taken from ChEMBL document CHEMBL1201862, “PubChem BioAssay data set” (2004).

SMILES strings stand for the structures. Active and inactive are the calls of the source. Where only a bound is given, the exact number is not on record here.

The target in experiment [1] is Intestinal-type alkaline phosphatase (Homo sapiens, UniProt P09923). In words: activation of human intestinal alkaline phosphatase – biochemical, dose response (AID 488873). Type of experiment: functional.
For experiment [2], the target named is T1, Zinc finger protein mex-5 (Caenorhabditis elegans, UniProt Q9XUB2).
T1 sequence (Q9XUB2 whole entry): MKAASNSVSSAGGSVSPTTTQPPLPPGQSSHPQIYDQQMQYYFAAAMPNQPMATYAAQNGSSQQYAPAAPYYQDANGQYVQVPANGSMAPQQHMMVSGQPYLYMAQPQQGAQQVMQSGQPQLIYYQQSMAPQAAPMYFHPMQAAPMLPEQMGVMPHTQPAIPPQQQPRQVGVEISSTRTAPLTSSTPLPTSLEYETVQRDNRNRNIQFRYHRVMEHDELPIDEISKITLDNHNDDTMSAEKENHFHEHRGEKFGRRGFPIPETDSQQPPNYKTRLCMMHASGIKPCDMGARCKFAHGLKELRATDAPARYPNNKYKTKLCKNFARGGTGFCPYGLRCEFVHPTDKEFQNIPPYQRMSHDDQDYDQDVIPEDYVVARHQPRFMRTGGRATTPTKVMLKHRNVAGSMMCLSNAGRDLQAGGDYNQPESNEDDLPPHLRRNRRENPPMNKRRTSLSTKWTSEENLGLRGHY
In words: potency of MEX-5 RNA-binding blockers – biochemical, C. elegans, fluorescence polarization, dose response (AID 1960). In general terms: Fluorescence polarisation rises when a labelled molecule tumbles more slowly, as on binding a larger partner.

Experiment [3] deals with T2, RNA-binding protein pos-1 (Caenorhabditis elegans, UniProt G5EF15).
T2 sequence (G5EF15 whole entry): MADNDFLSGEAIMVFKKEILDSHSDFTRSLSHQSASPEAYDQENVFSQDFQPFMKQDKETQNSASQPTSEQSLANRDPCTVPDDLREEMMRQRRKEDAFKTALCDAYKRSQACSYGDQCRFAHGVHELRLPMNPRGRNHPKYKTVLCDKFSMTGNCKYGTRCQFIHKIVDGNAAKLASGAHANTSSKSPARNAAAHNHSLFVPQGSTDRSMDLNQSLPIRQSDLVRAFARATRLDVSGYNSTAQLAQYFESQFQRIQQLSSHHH
The experiment in a line: disruptors of C. elegans POS-1 RNA interaction – biochemical, fluorescence polarization, dose response (AID 1964).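 Note: purified POS-1 fused to maltose binding protein made in E. coli; potency of compounds blocking POS-1 binding to fluorescent RNA.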

For experiment [4], the target named is Intestinal-type alkaline phosphatase (Mus musculus, UniProt P24822). In words: mouse intestinal alkaline phosphatase activators, dose response, biochemical, luminescence, uHTS hits (AID 488783). Type of experiment: functional.
Experiment [5] concerns the target T3, Alkaline phosphatase, tissue-nonspecific isozyme (Homo sapiens, UniProt P05186).
T3 sequence (P05186 whole entry): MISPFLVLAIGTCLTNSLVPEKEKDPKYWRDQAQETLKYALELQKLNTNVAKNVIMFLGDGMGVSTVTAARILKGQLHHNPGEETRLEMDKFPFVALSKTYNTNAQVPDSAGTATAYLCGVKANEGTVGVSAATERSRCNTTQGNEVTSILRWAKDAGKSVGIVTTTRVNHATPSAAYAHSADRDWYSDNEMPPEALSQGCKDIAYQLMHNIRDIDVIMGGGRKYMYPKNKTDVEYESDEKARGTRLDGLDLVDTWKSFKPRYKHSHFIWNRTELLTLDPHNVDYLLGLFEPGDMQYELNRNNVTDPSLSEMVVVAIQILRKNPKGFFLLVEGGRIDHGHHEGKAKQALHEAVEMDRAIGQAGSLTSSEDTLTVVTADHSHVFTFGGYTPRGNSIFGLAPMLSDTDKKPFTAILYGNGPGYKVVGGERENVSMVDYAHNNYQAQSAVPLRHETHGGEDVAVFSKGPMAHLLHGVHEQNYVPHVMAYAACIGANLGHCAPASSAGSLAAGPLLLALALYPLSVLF
In words: activation of tissue-nonspecific alkaline phosphatase – biochemical, TNAP isozyme, mouse IAP uHTS hits, selectivity assay for mouse IAP activator project, dose response (AID 488880). Type of experiment: functional.

A further experiment has as its target T4, Leucine aminopeptidase (Plasmodium falciparum 3D7, UniProt Q8IL11).
T4 sequence (Q8IL11 whole entry): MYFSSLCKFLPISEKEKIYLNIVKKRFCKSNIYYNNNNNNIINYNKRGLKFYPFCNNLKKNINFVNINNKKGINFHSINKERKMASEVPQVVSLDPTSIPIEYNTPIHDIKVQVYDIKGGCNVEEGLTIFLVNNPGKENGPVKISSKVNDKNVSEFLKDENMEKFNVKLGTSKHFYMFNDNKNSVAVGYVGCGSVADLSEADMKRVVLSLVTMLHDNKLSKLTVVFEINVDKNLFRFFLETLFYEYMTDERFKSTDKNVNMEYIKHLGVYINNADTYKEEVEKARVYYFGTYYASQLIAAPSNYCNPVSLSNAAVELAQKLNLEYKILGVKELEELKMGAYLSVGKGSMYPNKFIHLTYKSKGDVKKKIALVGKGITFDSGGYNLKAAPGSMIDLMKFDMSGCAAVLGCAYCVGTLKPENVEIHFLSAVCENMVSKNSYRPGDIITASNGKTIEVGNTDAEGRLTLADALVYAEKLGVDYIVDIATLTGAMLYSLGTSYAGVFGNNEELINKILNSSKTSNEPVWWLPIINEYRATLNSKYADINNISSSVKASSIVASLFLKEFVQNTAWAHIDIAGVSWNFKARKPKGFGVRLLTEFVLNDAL
In words: P. falciparum M17LAP inhibitors, primary screen, biochemical, fluorogenic H-Leu-NHMec substrate, 1536-well (AID 1619). In kind it is functional.

Experiment [6] addresses T5, Dual specificity protein phosphatase 3 (Homo sapiens, UniProt P51452). The experiment in a line: VHR1 phosphatase inhibitors, biochemical (AID 1878).
The target of experiment [7] is Induced myeloid leukemia cell differentiation protein Mcl-1 (Homo sapiens, UniProt Q07820). Type of experiment: functional.
Experiment [8] addresses DNA (cytosine-5)-methyltransferase 1 (Homo sapiens, UniProt P26358). The experiment in a line: inhibition of DNA methylation by DNMT1 – biochemical, fluorescent molecular beacon, confirmation (AID 602386). Type of experiment: functional.
Experiment [9] deals with T5, Dual specificity protein phosphatase 3. The experiment in a line: VHR1 phosphatase inhibitors, primary screen, biochemical, absorbance, uHTS (AID 1654).
Experiment [10] addresses T6, Dual specificity protein phosphatase 6 (Rattus norvegicus, UniProt Q64346).
T6 sequence (Q64346 whole entry): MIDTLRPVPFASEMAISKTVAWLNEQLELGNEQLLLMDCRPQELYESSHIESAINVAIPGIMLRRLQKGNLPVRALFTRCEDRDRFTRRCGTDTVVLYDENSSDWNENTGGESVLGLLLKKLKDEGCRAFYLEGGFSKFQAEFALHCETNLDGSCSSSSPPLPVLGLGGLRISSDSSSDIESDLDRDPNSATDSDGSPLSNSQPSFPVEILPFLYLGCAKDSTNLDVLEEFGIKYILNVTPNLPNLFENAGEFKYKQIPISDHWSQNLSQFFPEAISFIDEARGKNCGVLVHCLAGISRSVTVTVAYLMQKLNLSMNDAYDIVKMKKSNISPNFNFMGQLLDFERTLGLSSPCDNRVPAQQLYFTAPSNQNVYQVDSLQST
The experiment in a line: inhibition of rat DUSP6 enzyme activity – biochemical, in vitro, primary screen (AID 425).

T5 sequence (P51452 whole entry): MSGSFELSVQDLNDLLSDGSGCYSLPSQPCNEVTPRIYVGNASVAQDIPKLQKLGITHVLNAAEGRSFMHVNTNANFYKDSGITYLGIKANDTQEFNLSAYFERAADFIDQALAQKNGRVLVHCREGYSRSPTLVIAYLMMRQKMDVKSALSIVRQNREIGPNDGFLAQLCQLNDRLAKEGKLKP
Intestinal-type alkaline phosphatase (Mus musculus, UniProt P24822), sequence (P24822 whole entry): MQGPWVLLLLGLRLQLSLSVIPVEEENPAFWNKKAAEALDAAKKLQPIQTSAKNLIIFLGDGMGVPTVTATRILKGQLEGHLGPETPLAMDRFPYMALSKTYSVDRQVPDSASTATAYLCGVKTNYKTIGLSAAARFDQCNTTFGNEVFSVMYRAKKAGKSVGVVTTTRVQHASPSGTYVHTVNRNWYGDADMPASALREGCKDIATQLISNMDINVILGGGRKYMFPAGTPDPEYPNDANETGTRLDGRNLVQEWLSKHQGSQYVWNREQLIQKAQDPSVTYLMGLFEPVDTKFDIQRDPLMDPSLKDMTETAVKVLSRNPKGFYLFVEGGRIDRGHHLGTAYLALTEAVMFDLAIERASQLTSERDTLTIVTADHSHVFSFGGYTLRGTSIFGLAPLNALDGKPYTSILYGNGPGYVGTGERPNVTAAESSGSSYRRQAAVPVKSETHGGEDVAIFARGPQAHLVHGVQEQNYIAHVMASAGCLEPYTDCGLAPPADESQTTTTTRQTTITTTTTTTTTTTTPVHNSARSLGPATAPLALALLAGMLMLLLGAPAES
Intestinal-type alkaline phosphatase (Homo sapiens, UniProt P09923), sequence (P09923 whole entry): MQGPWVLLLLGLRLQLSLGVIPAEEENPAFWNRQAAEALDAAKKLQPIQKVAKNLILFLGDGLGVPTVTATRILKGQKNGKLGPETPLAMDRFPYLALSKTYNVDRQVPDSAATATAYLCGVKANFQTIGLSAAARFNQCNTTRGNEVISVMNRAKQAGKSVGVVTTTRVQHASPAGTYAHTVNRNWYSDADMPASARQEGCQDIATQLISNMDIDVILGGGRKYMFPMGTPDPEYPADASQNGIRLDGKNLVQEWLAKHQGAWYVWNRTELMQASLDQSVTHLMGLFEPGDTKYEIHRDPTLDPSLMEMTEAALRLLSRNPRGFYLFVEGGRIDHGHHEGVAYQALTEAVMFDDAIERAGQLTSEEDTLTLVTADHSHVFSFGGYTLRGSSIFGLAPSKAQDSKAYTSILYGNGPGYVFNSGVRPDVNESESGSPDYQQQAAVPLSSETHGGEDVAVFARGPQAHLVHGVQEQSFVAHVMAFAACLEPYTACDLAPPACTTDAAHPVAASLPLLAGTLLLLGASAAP
Induced myeloid leukemia cell differentiation protein Mcl-1, sequence (Q07820 whole entry): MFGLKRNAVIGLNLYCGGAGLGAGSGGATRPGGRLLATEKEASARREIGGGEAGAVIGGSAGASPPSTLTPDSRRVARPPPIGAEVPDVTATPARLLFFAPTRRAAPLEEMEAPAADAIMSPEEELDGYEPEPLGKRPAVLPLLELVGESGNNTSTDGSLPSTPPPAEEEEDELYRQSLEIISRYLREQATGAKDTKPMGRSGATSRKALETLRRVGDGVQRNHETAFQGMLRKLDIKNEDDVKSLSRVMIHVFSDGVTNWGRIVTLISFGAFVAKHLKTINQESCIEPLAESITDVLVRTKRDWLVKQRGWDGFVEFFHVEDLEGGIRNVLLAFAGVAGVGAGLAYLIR
DNA (cytosine-5)-methyltransferase 1, sequence (P26358 whole entry): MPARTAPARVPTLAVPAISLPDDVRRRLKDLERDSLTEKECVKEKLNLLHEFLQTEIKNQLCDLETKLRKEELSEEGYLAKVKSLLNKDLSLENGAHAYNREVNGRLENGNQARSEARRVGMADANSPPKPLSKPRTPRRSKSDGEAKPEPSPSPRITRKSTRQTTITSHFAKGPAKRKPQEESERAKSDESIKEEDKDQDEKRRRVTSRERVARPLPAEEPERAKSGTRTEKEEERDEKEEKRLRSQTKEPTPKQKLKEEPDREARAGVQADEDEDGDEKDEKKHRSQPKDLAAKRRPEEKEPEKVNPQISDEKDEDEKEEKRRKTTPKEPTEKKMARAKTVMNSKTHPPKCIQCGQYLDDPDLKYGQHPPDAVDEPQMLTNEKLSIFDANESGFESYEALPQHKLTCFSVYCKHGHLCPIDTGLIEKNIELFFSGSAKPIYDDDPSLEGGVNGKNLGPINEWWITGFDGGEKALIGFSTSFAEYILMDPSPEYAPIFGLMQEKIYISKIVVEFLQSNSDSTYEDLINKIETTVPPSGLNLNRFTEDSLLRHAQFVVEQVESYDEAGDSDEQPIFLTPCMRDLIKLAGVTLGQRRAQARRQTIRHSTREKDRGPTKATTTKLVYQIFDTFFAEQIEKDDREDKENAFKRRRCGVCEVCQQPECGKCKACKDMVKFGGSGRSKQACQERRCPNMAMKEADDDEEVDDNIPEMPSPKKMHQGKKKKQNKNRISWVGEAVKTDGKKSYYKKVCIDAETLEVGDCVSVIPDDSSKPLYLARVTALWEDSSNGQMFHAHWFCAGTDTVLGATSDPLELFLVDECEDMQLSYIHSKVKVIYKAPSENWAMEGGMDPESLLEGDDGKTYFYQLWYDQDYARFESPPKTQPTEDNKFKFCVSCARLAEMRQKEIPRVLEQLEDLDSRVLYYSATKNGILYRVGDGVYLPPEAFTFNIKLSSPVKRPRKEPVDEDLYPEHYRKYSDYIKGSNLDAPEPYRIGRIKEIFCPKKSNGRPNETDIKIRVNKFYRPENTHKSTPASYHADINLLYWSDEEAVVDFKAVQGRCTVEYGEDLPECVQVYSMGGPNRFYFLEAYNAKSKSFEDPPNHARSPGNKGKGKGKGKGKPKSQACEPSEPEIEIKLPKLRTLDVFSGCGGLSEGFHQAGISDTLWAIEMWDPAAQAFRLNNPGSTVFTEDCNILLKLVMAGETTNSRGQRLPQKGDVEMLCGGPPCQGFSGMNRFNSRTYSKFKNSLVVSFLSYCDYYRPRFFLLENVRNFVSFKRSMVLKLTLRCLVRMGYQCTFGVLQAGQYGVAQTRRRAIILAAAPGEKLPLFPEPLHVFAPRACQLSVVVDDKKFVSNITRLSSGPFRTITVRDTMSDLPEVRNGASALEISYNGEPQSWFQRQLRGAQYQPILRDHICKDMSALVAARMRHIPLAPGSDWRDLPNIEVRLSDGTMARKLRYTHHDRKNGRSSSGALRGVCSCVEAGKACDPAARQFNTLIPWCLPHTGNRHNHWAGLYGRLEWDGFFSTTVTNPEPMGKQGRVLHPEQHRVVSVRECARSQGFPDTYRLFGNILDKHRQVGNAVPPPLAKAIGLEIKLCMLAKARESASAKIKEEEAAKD

In general, EC50 refers to the concentration that produces a half-maximal response. As usually defined, the IC50 is the midpoint of a concentration-inhibition curve. With `COc1ccc(S(=O)(=O)Nc2ccc(O)c(Sc3nnc[nH]3)c2)cc1`, the EC50 in experiment [1] is 79.6 µM (active); in [2], 8.48 µM (active); in [3], 10.4 µM (active); in experiment [4], 63.4 µM (active); in experiment [5], 62.8 µM (active). For the same molecule, the IC50 on Leucine aminopeptidase is 25 µM (active).
As for `Cc1ccc(NC(=O)CN2C(=O)S/C(=C\c3cccn3-c3cccc(C(=O)O)c3)C2=O)c(C)c1`, the IC50 was 1.89 µM (active) in [6]; > 54 µM (active) in [7]; 9.17 µM (active) in [8]; 3.25 µM (active) in [9]; 7.9 µM (active) in experiment [10]. For the same molecule, the EC50 in experiment [2] and in [3] was > 300 µM (not active) throughout.
